The source of these data is US20200375943A1 (priority 2019, published 2020).

Molecules are shown by their SMILES. Where two headings read alike, the source gives them in different places.

The target of data set [1] is T1, SVCT2 (Homo sapiens, UniProt Q9UGH3). Also on record: endogenous in cells; host or cells: HTR-8/SVneo human trophoblast cell line. The settings on record: cited from earlier work; for inhibitory action for LAA transporter SVCT2: HTR-8/SVneo cells; for uptake of LAA via SVCT2: trophoblast cells.
Target sequence in this assay (Q9UGH3 whole entry): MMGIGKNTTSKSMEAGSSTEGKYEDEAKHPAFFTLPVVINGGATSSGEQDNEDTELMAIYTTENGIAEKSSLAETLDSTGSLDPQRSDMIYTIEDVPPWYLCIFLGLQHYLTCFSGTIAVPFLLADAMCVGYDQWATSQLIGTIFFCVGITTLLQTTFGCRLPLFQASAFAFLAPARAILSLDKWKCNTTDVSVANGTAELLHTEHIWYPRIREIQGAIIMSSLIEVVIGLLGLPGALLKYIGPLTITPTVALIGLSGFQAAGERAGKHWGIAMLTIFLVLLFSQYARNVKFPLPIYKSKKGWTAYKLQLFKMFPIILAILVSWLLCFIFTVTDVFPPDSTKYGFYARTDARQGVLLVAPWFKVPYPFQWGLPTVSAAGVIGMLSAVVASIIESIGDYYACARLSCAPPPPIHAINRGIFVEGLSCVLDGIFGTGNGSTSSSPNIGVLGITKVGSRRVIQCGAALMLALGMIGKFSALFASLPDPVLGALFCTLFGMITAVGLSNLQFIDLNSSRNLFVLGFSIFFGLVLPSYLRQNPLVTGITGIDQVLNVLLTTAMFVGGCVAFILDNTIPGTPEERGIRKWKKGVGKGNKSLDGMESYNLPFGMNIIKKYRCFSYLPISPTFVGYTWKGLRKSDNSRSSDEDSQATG
Another data set has as its system sarcoma tumors. As to conditions: oral gavage, cited from earlier work.
For data set [2] the following is noted: cited from earlier work.
The next data set deals with human leukemic cells. The settings on record: bone marrows from 259 patients; cited from earlier work.
A further data set deals with leukemic blast cells. The experiment in a line: Phase I/II clinical trial of LAA depletion alternating with LAA supplementation. Format: in vivo, human. The source says: No. 12, Blood. 2000 (see Reference 9).
That is, in the example, a leukemia patient first received a chemotherapy and subsequently received the LAA supplementation. […] The noted sharp decline is much more precipitous than what can be observed with chemotherapy.
In the example, the significant improvement is also noted that there was a total of 8 out of 16 patients in the Phase I/II clinical trial responding (p=0.007).

Data set [3] has as its target T1, SVCT2. Details: endogenous in cells; host or cells: bone marrow stromal cells (BMSCs). The settings on record: 600 uM, BMSCs; cited from earlier work.
Target sequence in this assay (Q9UGH3 whole entry, species assumed): as the sequence (Q9UGH3 whole entry) above
The conditions of data set [4]: humans, oral; cited from earlier work.
The next data set concerns the target T2, SVCT1(h) (Homo sapiens, UniProt Q9UHI7).
T2 construct: expressed in transfected cells
As to conditions: 50 uM, ascorbate 10-400 uM; cited from earlier work.

Data set [5] concerns SVCT2. The settings on record: 200 uM, cortical or cerebellar neurons; cited from earlier work.

T2 sequence (Q9UHI7 whole entry): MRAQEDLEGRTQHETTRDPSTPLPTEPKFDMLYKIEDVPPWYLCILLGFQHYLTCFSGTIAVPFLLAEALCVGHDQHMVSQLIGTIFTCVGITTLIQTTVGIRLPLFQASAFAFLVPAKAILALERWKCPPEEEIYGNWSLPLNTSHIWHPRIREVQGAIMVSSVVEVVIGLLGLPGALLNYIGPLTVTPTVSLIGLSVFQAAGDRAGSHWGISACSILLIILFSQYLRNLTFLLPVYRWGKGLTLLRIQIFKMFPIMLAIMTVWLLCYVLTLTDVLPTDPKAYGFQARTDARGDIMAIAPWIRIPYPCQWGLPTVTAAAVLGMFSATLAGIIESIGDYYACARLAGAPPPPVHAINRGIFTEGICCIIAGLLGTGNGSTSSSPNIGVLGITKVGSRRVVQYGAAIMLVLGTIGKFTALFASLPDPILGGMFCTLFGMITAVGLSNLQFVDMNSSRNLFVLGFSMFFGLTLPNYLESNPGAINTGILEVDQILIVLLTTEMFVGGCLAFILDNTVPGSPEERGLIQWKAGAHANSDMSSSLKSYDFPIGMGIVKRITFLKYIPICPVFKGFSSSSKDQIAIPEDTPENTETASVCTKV

For the compound `C[C@]12CC[C@@H]3c4ccc(O)cc4CC[C@H]3[C@@H]1CC[C@@H]2O` [17β-estadiol], the “inhibitory action for LAA transporter SVCT2” value (“inhibitory action” below) at SVCT2 [1] is recorded as “very strong inhibitory action”.

On to `O=C1O[C@H]([C@@H](O)CO)C(O)=C1O` [LAA, L-ascorbic acid], for which, in the data set with sarcoma tumors (0.3 mg/kg/day, up to 24 weeks), the “complete tumor regression, animals” value is given as 55%. Moreover, the tumor growth entry with sarcoma tumors (10 mg/kg/day) is listed as “tumor inhibition but no regression”; with sarcoma tumors (1 g/kg/day), “grew without sign of retardation”. Also, the “peak concentrations without significant adverse effects” value in [2] (intravenous infusion) is reported as “over 10 mMol”. The blood levels in data set [2] (oral, up to 180 gram per day in divided doses) was not above 200 µM. In addition, the “patients whose leukemic cells had the requirement of LAA for growth” value in the data set with human leukemic cells is approximately 50%. In addition, in the data set on leukemic blast cells (LAA supplementation after chemotherapy (FIG. 3B)), the “D-dimer test for massive cell lysis” value is given as “sharp increase”. For the same compound, the patients responding with leukemic blast cells (Phase I/II clinical trial, 16 evaluated patients, p=0.007) was 8 out of 16. Also, the “leukemic blast cells in peripheral blood” value in the data set with leukemic blast cells (after 10 days of LAA supplementation, relapse after cytotoxic chemotherapy (FIG. 3A)) is recorded as “sharp decline”. Also, the “frequency of platelet transfusion” value in the data set with leukemic blast cells (alternation of LAA supplementation and depletion, same patient (FIG. 2B)) is “marked reduction in the frequency of platelet transfusion”. For the same compound, the “leukemic blast cell number (peripheral blood and bone marrow)” value with leukemic blast cells (during supplementation of LAA phase, intravenous, one patient (FIG. 2A)) is “decline in leukemic blast cell number”. Moreover, the spleen size result in the data set with leukemic blast cells (during supplementation of LAA phase, one patient (FIG. 2A)) was “decline in spleen size”.

`Cl.N=c1c[n+](N2CCOCC2)[n-]o1` [SIN-1, 3-(4-Morpholinyl) sydnonimine hydrochloride]: the “decrease in LAA uptake” value on SVCT2 [3] is listed as “up to 40%”.

For `O=C(O)Cc1ccccc1Nc1c(Cl)cccc1Cl` [diclofenac], on SVCT2 [1], the “inhibitory action” value is “very strong inhibitory action” and the “uptake of LAA via SVCT2” value is given as “inhibit the uptake of LAA”.

`O=c1c(-c2ccc(O)cc2)coc2cc(O)cc(O)c12` [genistein]: the “inhibitory action” value on SVCT2 [1] is listed as “very strong inhibitory action”.

As for `COc1ccc2c(c1)c(CC(=O)O)c(C)n2C(=O)c1ccc(Cl)cc1` [indomethacin], on SVCT2 [1], the “uptake of LAA via SVCT2” value is reported as “inhibit the uptake of LAA”.

As for `O=c1c(O)c(-c2ccc(O)c(O)c2)oc2cc(O)cc(O)c12` [quercetin], the “dose administered orally without side effects” value in [4] was 4 g. For the same compound, the “inhibitory action” value on SVCT2 [1] is reported as “very strong inhibitory action”. In addition, at SVCT1(h), the “inhibition of LAA transporter SVCT1(h)” value is given as “about 80%”. The “decrease of LAA transport SVCT2” value in the data set on SVCT2 [5] is listed as 80%.
